According to patent US9695155B2, “Herbicidal substituted pyrimidinyloxy benzene compounds” (E. I. DU PONT DE NEMOURS AND COMPANY, priority 2013, dated 2017):

Experiments:
[1] = system: barnyardgrass; assay: Test B flooded paddy test; type: in vivo, Echinochloa crus-galli; conditions: Flood, 250 g ai/ha; 0 to 100 scale where 0 is no effect and 100 is complete control
Outline: (§1)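 Greenhouse flooded-pot test: compounds dosed into 3 cm standing water over 2-leaf plants, flood held constant. Rated visually after 13–15 days on 0–100 (complete control = 100); a dash marks no test result.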

[2] = system: giant foxtail; assay: Test A preemergence; type: in vivo, Setaria faberii
Outline: (§2)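 Compounds in non-phytotoxic solvent with surfactant applied as soil spray preemergence, or postemergence to plants 2-10 cm at one- to two-leaf stage, in loam/sand. After approximately 10 days in greenhouse, injury rated visually versus untreated controls, 0 (no effect) to 100 (complete control).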

[3] = system: pigweed; assay: Test A preemergence; type: in vivo, Amaranthus retroflexus
Outline: as §2

[4] = system: corn; assay: Test A postemergence; type: in vivo, Zea mays; conditions: 0 to 100 scale where 0 is no effect and 100 is complete control
Outline: as §2

[5] = system: Heteranthera limosa; assay: Test B flooded paddy test; type: in vivo; conditions: Flood, 250 g ai/ha; 0 to 100 scale where 0 is no effect and 100 is complete control
Outline: as §1

[6] = system: velvetleaf; assay: Test A preemergence; type: in vivo, Abutilon theophrasti
Outline: as §2

[7] = system: ducksalad; assay: Test C flooded paddy test; type: in vivo, Heteranthera limosa; conditions: Flood, scale 0 to 100 (0 no effect, 100 complete control), 13 to 15 days
Text: (§3) At time of treatment, test pots were flooded to 3 cm above the soil surface, treated by application of test compounds directly to the paddy water, and then maintained at that water depth for the duration of the test. Treated plants and controls were maintained in a greenhouse for 13 to 15 days, after which time all species were compared to controls and visually evaluated. […] A dash (-) response means no test result.

[8] = system: wheat; assay: Test A postemergence; type: in vivo, Triticum aestivum; conditions: 0 to 100 scale where 0 is no effect and 100 is complete control
Outline: as §2

[9] = system: rice; assay: Test C flooded paddy test; type: in vivo, Oryza sativa; conditions: Flood, scale 0 to 100 (0 no effect, 100 complete control), 13 to 15 days
Text: as §3

[10] = system: rice; assay: Test B flooded paddy test; type: in vivo, Oryza sativa; conditions: Flood, 250 g ai/ha; 0 to 100 scale where 0 is no effect and 100 is complete control
Outline: as §1

[11] = system: pigweed; assay: Test A postemergence; type: in vivo, Amaranthus retroflexus; conditions: 0 to 100 scale where 0 is no effect and 100 is complete control
Outline: as §2

[12] = system: barnyardgrass; assay: Test C flooded paddy test; type: in vivo, Echinochloa crus-galli; conditions: Flood, scale 0 to 100 (0 no effect, 100 complete control), 13 to 15 days
Text: as §3

[13] = system: giant foxtail; assay: Test A postemergence; type: in vivo, Setaria faberii; conditions: 0 to 100 scale where 0 is no effect and 100 is complete control
Outline: as §2

[14] = system: large (Lg) crabgrass; assay: Test A postemergence; type: in vivo, Digitaria sanguinalis; conditions: 0 to 100 scale where 0 is no effect and 100 is complete control
Outline: as §2

[15] = system: morningglory; assay: Test A preemergence; type: in vivo, Ipomoea spp.
Outline: as §2

[16] = system: morningglory; assay: Test A postemergence; type: in vivo, Ipomoea spp.; conditions: 0 to 100 scale where 0 is no effect and 100 is complete control
Outline: as §2

[17] = system: wheat; assay: Test A preemergence; type: in vivo, Triticum aestivum
Outline: as §2

[18] = system: barnyardgrass; assay: Test A preemergence; type: in vivo, Echinochloa crus-galli
Outline: as §2

[19] = system: barnyardgrass; assay: Test A postemergence; type: in vivo, Echinochloa crus-galli; conditions: 0 to 100 scale where 0 is no effect and 100 is complete control
Outline: as §2

[20] = system: sedge, umbrella; assay: Test B flooded paddy test; type: in vivo, Cyperus difformis; conditions: Flood, 250 g ai/ha; 0 to 100 scale where 0 is no effect and 100 is complete control
Outline: as §1

[21] = system: velvetleaf; assay: Test A postemergence; type: in vivo, Abutilon theophrasti; conditions: 0 to 100 scale where 0 is no effect and 100 is complete control
Outline: as §2

[22] = system: corn; assay: Test A preemergence; type: in vivo, Zea mays
Outline: as §2

[23] = system: sedge, umbrella; assay: Test C flooded paddy test; type: in vivo, Cyperus difformis; conditions: Flood, scale 0 to 100 (0 no effect, 100 complete control), 13 to 15 days
Text: as §3

[24] = system: large (Lg) crabgrass; assay: Test A preemergence; type: in vivo, Digitaria sanguinalis
Outline: as §2

[25] = 500 g ai/ha, 0 to 100 scale where 0 is no effect and 100 is complete control

Structure (SMILES): FC(F)c1cccc(Oc2ncc(Br)cn2)c1-n1cc(I)cn1 [Compound 185]
- Plant response rating, Barnyardgrass [1]: 0
- Foxtail, Giant plant response rating (0 to 100 scale) ([2]; 125 g ai/ha): 90
- Foxtail, Giant plant response rating [2, 25]: 100
- Pigweed plant response rating (0 to 100 scale) ([3]; 125 g ai/ha): 100
- Pigweed plant response rating [3, 25]: 100
- Corn plant response rating ([4]; 125 g ai/ha): 10
- Plant response rating, Corn ([4]; 500 g ai/ha): 20
- Plant response rating, Ducksalad [5]: 95
- Velvetleaf plant response rating (0 to 100 scale) ([6]; 125 g ai/ha): 40
- Velvetleaf plant response rating [6, 25]: 80
- Plant response rating, Ducksalad ([7]; 31 g ai/ha): 0
- Plant response rating, Ducksalad ([7]; 62 g ai/ha): 0
- Plant response rating, Ducksalad ([7]; 125 g ai/ha): 0
- Plant response rating, Ducksalad ([7]; 250 g ai/ha): 40
- Wheat plant response rating ([8]; 125 g ai/ha): 0
- Plant response rating, Wheat ([8]; 500 g ai/ha): 40
- Plant response rating, Rice ([9]; 31 g ai/ha): 0
- Plant response rating, Rice ([9]; 62 g ai/ha): 0
- Plant response rating, Rice ([9]; 125 g ai/ha): 0
- Plant response rating, Rice ([9]; 250 g ai/ha): 15
- Plant response rating, Rice [10]: 0
- Pigweed plant response rating ([11]; 125 g ai/ha): 100
- Plant response rating, Pigweed ([11]; 500 g ai/ha): 100
- Plant response rating, Barnyardgrass ([12]; 31 g ai/ha): 0
- Plant response rating, Barnyardgrass ([12]; 62 g ai/ha): 0
- Plant response rating, Barnyardgrass ([12]; 125 g ai/ha): 0
- Plant response rating, Barnyardgrass ([12]; 250 g ai/ha): 0
- Foxtail, Giant plant response rating ([13]; 125 g ai/ha): 50
- Plant response rating, Foxtail, Giant ([13]; 500 g ai/ha): 80
- Crabgrass, Large plant response rating ([14]; 125 g ai/ha): 60
- Plant response rating, Crabgrass, Large ([14]; 500 g ai/ha): 90
- Morningglory plant response rating (0 to 100 scale) ([15]; 125 g ai/ha): 10
- Morningglory plant response rating [15, 25]: 30
- Morningglory plant response rating ([16]; 125 g ai/ha): 70
- Plant response rating, Morningglory ([16]; 500 g ai/ha): 90
- Wheat plant response rating (0 to 100 scale) ([17]; 125 g ai/ha): 0
- Wheat plant response rating [17, 25]: 10
- Barnyardgrass plant response rating (0 to 100 scale, 0 is no effect, 100 is complete control) ([18]; 125 g ai/ha): 40
- Barnyardgrass plant response rating [18, 25]: 80
- Barnyardgrass plant response rating ([19]; 125 g ai/ha): 50
- Plant response rating, Barnyardgrass ([19]; 500 g ai/ha): 80
- Plant response rating, Sedge, Umbrella [20]: 90
- Velvetleaf plant response rating ([21]; 125 g ai/ha): 90
- Plant response rating, Velvetleaf ([21]; 500 g ai/ha): 100
- Corn plant response rating (0 to 100 scale) ([22]; 125 g ai/ha): 0
- Corn plant response rating [22, 25]: 10
- Plant response rating, Sedge, Umbrella ([23]; 31 g ai/ha): 0
- Plant response rating, Sedge, Umbrella ([23]; 62 g ai/ha): 50
- Plant response rating, Sedge, Umbrella ([23]; 125 g ai/ha): 50
- Plant response rating, Sedge, Umbrella ([23]; 250 g ai/ha): 85
- Crabgrass, Large plant response rating (0 to 100 scale) ([24]; 125 g ai/ha): 90
- Crabgrass, Large plant response rating [24, 25]: 100
